Results reported in ChEMBL document CHEMBL3885861, “Open TG-GATES”.

Species on record: Rattus norvegicus
Experiment: Open TG-GATES - Regimen: Single
Assay type: toxicity, organism-based, Sprague-Dawley
Set-up: regimen Single, gender Male, age 6 weeks
Settings: in vivo, po, 10 mg/kg, route gavage, dose level Middle; for APTT / Bas / Eos / Fbg / Hb / Ht / Lym / MCH / MCHC / MCV / Mono / Neu / PT / Plat / RBC / Ret / WBC: tissue Blood; for KIDNEY_L / KIDNEY_R / KIDNEY_TOTAL: tissue Kidney; for LIVER: tissue Liver; for A/G / ALP / ALT / AST / BUN / CRE / Ca / Cl / DBIL / GLC / IP / K / LDH / Na / PL / RALB / TBIL / TC / TG / TP / gamma-GTP: tissue Plasma

Cn1cnc([N+](=O)[O-])c1Sc1ncnc2nc[nH]c12 [AZATHIOPRINE]
TERMINAL_BW (3 h): 192.8 g | APTT (3 h): 22.9 s | Bas (3 h): 0% | Eos (3 h): 0.8% | Fbg (3 h): 277.6 mg/dL | Hb (3 h): 13.1 g/dL | Ht (3 h): 39.1% | Lym (3 h): 77.8% | MCH (3 h): 21.6 pg | MCHC (3 h): 33.7% | MCV (3 h): 64.2 fL | Mono (3 h): 2.2% | Neu (3 h): 18% | PT (3 h): 15.7 s | Plat (3 h): 117.8 x10_4/uL | RBC (3 h): 609.8 x10_4/ul | Ret (3 h): 9.7% | WBC (3 h): 65 x10_2/uL | KIDNEY_L (3 h): 0.9 g | KIDNEY_R (3 h): 0.9 g | KIDNEY_TOTAL (3 h): 1.7 g | LIVER (3 h): 8.5 g | A/G (3 h): 1.1 | ALP (3 h): 1723.6 IU/L | ALT (3 h): 47.6 IU/L | AST (3 h): 78 IU/L | BUN (3 h): 11.4 mg/dL | CRE (3 h): 0.2 mg/dL | Ca (3 h): 10.6 mg/dL | Cl (3 h): 105.6 meq/L | DBIL (3 h): 0.006 mg/dL | GLC (3 h): 189.4 mg/dL | IP (3 h): 9.1 mg/dL | K (3 h): 4.1 meq/L | LDH (3 h): 211.4 IU/L | Na (3 h): 141.8 meq/L | PL (3 h): 133.2 mg/dL | RALB (3 h): 2.9 g/dL | TBIL (3 h): 0.008 mg/dL | TC (3 h): 77 mg/dL | TG (3 h): 57.6 mg/dL | TP (3 h): 5.5 g/dL | gamma-GTP (3 h): 1 IU/L | TERMINAL_BW (6 h): 189.2 g | APTT (6 h): 21.4 s | Bas (6 h): 0% | Eos (6 h): 1% | Fbg (6 h): 308.4 mg/dL | Hb (6 h): 12.8 g/dL | Ht (6 h): 39% | Lym (6 h): 72% | MCH (6 h): 21.4 pg | MCHC (6 h): 32.9% | MCV (6 h): 65.2 fL | Mono (6 h): 2.8% | Neu (6 h): 22.8% | PT (6 h): 15.6 s | Plat (6 h): 124.6 x10_4/uL | RBC (6 h): 598.6 x10_4/ul | Ret (6 h): 9.2% | WBC (6 h): 73.6 x10_2/uL | KIDNEY_L (6 h): 0.9 g | KIDNEY_R (6 h): 0.9 g | KIDNEY_TOTAL (6 h): 1.8 g | LIVER (6 h): 8.1 g | A/G (6 h): 1.2 | ALP (6 h): 1521.2 IU/L | ALT (6 h): 41.8 IU/L | AST (6 h): 70.6 IU/L | BUN (6 h): 8.8 mg/dL | CRE (6 h): 0.1 mg/dL | Ca (6 h): 10.5 mg/dL | Cl (6 h): 107.2 meq/L | DBIL (6 h): 0.004 mg/dL | GLC (6 h): 175.4 mg/dL | IP (6 h): 9.1 mg/dL | K (6 h): 4.6 meq/L | LDH (6 h): 249.2 IU/L | Na (6 h): 140.8 meq/L | PL (6 h): 120.6 mg/dL | RALB (6 h): 2.9 g/dL | TBIL (6 h): 0.01 mg/dL | TC (6 h): 72.6 mg/dL | TG (6 h): 50.4 mg/dL | TP (6 h): 5.4 g/dL | gamma-GTP (6 h): 1 IU/L | TERMINAL_BW (9 h): 183.9 g | APTT (9 h): 22.4 s | Bas (9 h): 0% | Eos (9 h): 1% | Fbg (9 h): 304.8 mg/dL | Hb (9 h): 12.9 g/dL | Ht (9 h): 38.9% | Lym (9 h): 74.8% | MCH (9 h): 21.8 pg | MCHC (9 h): 33.2% | MCV (9 h): 65.6 fL | Mono (9 h): 2.4% | Neu (9 h): 20.6% | PT (9 h): 15.3 s | Plat (9 h): 114.2 x10_4/uL | RBC (9 h): 592.2 x10_4/ul | Ret (9 h): 9% | WBC (9 h): 83.3 x10_2/uL | KIDNEY_L (9 h): 0.9 g | KIDNEY_R (9 h): 0.9 g | KIDNEY_TOTAL (9 h): 1.7 g | LIVER (9 h): 7.7 g | A/G (9 h): 1.2 | ALP (9 h): 1473.8 IU/L | ALT (9 h): 32.4 IU/L | AST (9 h): 64.8 IU/L | BUN (9 h): 10 mg/dL | CRE (9 h): 0.1 mg/dL | Ca (9 h): 10.4 mg/dL | Cl (9 h): 106.6 meq/L | DBIL (9 h): 0 mg/dL | GLC (9 h): 186 mg/dL | IP (9 h): 9.6 mg/dL | K (9 h): 4.2 meq/L | LDH (9 h): 223.2 IU/L | Na (9 h): 141 meq/L | PL (9 h): 145 mg/dL | RALB (9 h): 3.1 g/dL | TBIL (9 h): 0.012 mg/dL | TC (9 h): 85.2 mg/dL | TG (9 h): 47 mg/dL | TP (9 h): 5.6 g/dL | gamma-GTP (9 h): 1 IU/L | TERMINAL_BW (24 h): 199.9 g | APTT (24 h): 20.9 s | Bas (24 h): 0% | Eos (24 h): 1% | Fbg (24 h): 309 mg/dL | Hb (24 h): 13.4 g/dL | Ht (24 h): 39.3% | Lym (24 h): 81.6% | MCH (24 h): 21.7 pg | MCHC (24 h): 34.1% | MCV (24 h): 63.9 fL | Mono (24 h): 2% | Neu (24 h): 14.4% | PT (24 h): 15.4 s | Plat (24 h): 120.4 x10_4/uL | RBC (24 h): 616.2 x10_4/ul | Ret (24 h): 7.9% | WBC (24 h): 54.7 x10_2/uL | KIDNEY_L (24 h): 0.9 g | KIDNEY_R (24 h): 0.9 g | KIDNEY_TOTAL (24 h): 1.8 g | LIVER (24 h): 9.2 g | A/G (24 h): 1.3 | ALP (24 h): 1643.2 IU/L | ALT (24 h): 40.2 IU/L | AST (24 h): 71.4 IU/L | BUN (24 h): 15.4 mg/dL | CRE (24 h): 0.1 mg/dL | Ca (24 h): 10.8 mg/dL | Cl (24 h): 106.8 meq/L | DBIL (24 h): 0.002 mg/dL | GLC (24 h): 190.6 mg/dL | IP (24 h): 7.6 mg/dL | K (24 h): 4.1 meq/L | LDH (24 h): 203.8 IU/L | Na (24 h): 143 meq/L | PL (24 h): 160.2 mg/dL | RALB (24 h): 3.1 g/dL | TBIL (24 h): 0.006 mg/dL | TC (24 h): 90 mg/dL | TG (24 h): 82.6 mg/dL | TP (24 h): 5.6 g/dL | gamma-GTP (24 h): 1 IU/L
